Reference: publication PMC9325861, “Mouse precision-cut liver slices as an ex vivo model to study drug-induced cholestasis” (Archives of Toxicology, 2022)
Where a name gives a salt, the structure may show the parent alone. Read-outs that look alike come from different tables or passages of the source.

Assays:
mouse PCLS = assay: Viability of mouse PCLS by ATP content (ATP bioluminescence, normalized to protein); assay type: cell-based; conditions: for IC50 / CC50: Mus musculus; for IC 5% (best-fit) / IC 25% (best-fit): Table S3, unit not given; for Enhancement of drug toxicity by addition of the BA mixture: extra sum of squares F-test of fits with vs w/o BA
Description: (§1) In short, freshly prepared PCLS were transferred to 12-well plates (Greiner bio-one GmbH, Austria), one slice per well. Each well was filled with 1.3 mL pre-heated (37 ℃) and oxygenated (80%) Williams Medium E (1X, glutaMAX-1), which had been supplemented with 25 mM D-glucose monohydrate and 50 μg/ml Gentamicin (denoted as WME GG). […] The DMSO concentration used was below 0.5% in the incubation medium, equivalent to DMSO concentrations in solutions prepared by dilution of BA stock solutions with WME GG.
ATP was extracted by homogenization, followed by the centrifugation of the homogenate (16,000g at 4 °C for 5 min). The supernatant was collected, and the pellet was left to dry. An ATP Bioluminescence Assay Kit (Roche Diagnostics, Mannheim, Germany) was used to determine ATP content in the supernatant. The dried pellet was used to determine the total protein content of the PCLS using the Bio-Rad DC Protein Assay (Bio-Rad, Munich, Germany). The obtained ATP values were then normalized for the total protein content of the slice.
A minimum of three mouse livers was used for each experiment, using PCLS in triplicate from each liver. GraphPad Prism 8.4.3 was used to perform statistical analysis, using a Student’s unpaired two-tailed T-test to compare two means, or a one-way ANOVA to compare multiple means. One-way ANOVA was followed by either Tukey’s multiple comparisons test to compare all means within a dataset, or Dunnett’s multiple comparisons test to compare all means with their own control mean. Nonlinear regression analysis was followed by an extra sum of squares F-test to compare two fits. mRNA expression levels are shown as Log2(fold induction) (− ΔΔCt), though the data was statistically analyzed using the cycle threshold (ΔCt) values. Differences between groups were considered significant when p < 0.05.

Bsep (Abcb11) = assay: qRT-PCR gene expression in mouse PCLS: Bsep; assay type: cell-based; conditions: 48 h
Description: (§2) In short, freshly prepared PCLS were transferred to 12-well plates (Greiner bio-one GmbH, Austria), one slice per well.
(§3) Three PCLS incubated under a given condition were pooled in a 1.5-mL Rnase-free test tube, snap-frozen in liquid nitrogen, and stored at – 80 °C until analysis. RNA was isolated using a FavorPrep Tissue Total RNA Mini Kit (Favorgen, Vienna, Austria). Subsequently, the RNA yield was quantified using a NanoDrop One instrument (Thermo Fisher Scientific, Massachusetts, USA). Isolated RNA was reverse-transcribed to cDNA using a cDNA synthesis kit (Reverse Transcription System, Promega, Benelux B.V.). The cDNA samples were subsequently loaded in the thermal cycler with a program set to 22 °C for 10 min, 42 °C for 15 min, and 95 °C for 5 min.
(§4) qRT-PCR was used to determine the relative mRNA expression levels for the mouse target genes: Bsep (Abcb11), Mrp2 (Abcc2), Mrp3 (Abcc3), Mrp4 (Abcc4), Ntcp (Slc10a1), Fxr (Nr1h4), Cyp7a1 (Cyp7a1), Collagen type 1a1 (Col1a1), Hsp47 (Serpinh1). Primer sequences of the genes tested are given in Supplementary Table S1. QRT-PCR was performed using, the dye, FastStart Universal SYBR Green Master Mix (Roche Diagnostics Netherlands B.V., Almere, the Netherlands) with the ViiA™ 7 Real-Time PCR System (Applied Biosystems, Bleiswijk, the Netherlands). The first cycle constituted 10 min at 95 °C, followed by 40 cycles of 15 s at 95 °C, 30 s at 60 °C and 30 s at 72 °C, followed by 1 cycle dissociation stage (15 s: 95 °C, 60 °C and 95 °C). A minimum of four mouse livers was used for each experiment, using three PCLS per condition. Samples were measured in duplicates. […] Results are expressed as log2(fold change).

[1] = test system: Collagen type 1a1 (Col1a1); assay: qRT-PCR gene expression in mouse PCLS: Col1a1; assay type: cell-based; conditions: 48 h
Description: as §1, §3, §4

Hsp47 (Serpinh1) = assay: qRT-PCR gene expression in mouse PCLS: Hsp47; assay type: cell-based; conditions: 48 h, in the presence of BAs, highest concentration (30 µM CPZ)
Description: as §1
as §3, with “The cDNA samples were subsequently loaded in the thermal cycler with a program set to 22 °C for 10 min, 42 °C for 15 min, and 95 °C for 5 min.” left out
qRT-PCR was used to determine the relative mRNA expression levels for the mouse target genes: Bsep (Abcb11), Mrp2 (Abcc2), Mrp3 (Abcc3), Mrp4 (Abcc4), Ntcp (Slc10a1), Fxr (Nr1h4), Cyp7a1 (Cyp7a1), Collagen type 1a1 (Col1a1), Hsp47 (Serpinh1). […] Samples were measured in duplicates. […] Results are expressed as log2(fold change).

Bsep = assay: Western blot of Bsep protein in mouse PCLS; assay type: cell-based; conditions: 48 h
Description: as §2
In brief, the protein was extracted from three slices per treatment, and protein samples were denatured (75 °C for 10 min). […] Gels were blotted onto 0.2-μm polyvinylidene fluoride membranes using a Trans-Blot Turbo Transfer System (Bio-Rad, Munich, Germany), set to ramp up to 25 V in 15 min, at a constant current of 2.5 A. Membranes were then treated for 1 h with a protein blocking agent to prevent non-specific binding of antibodies, and incubated at 4 °C overnight with Bsep primary antibody (monoclonal antibody rabbit anti-Bsep, 1:2500, Tebu-Bio, Le Perray-en-Yvelines, France), Ntcp primary antibody (polyclonal antibody, rabbit anti-Ntcp, 1:2000, Tebu-Bio), and vinculin (116 kDa) primary antibody (monoclonal antibody, mouse anti-Vinculin, 1:500, Santa Cruz, California, USA). The following day, membranes were incubated with matching secondary antibodies for 1 h (Goat anti-rabbit HRP (Bsep and Ntcp), 1:2000; Rabbit anti-mouse HRP (vinculin), 1:5000, Dako, Santa Clara). Proteins were then visualized by adding Clarity Western ECL blotting substrate (Bio-Rad, Munich, Germany) and using a ChemiDoc Touch Imaging System (BioRad, Munich, Germany) for imaging of the resulting chemiluminescence. Afterward, Bsep and Ntcp expression was normalized by vinculin expression.

human PCLS = test system: human PCLS; set-up: method as in Vatakuti et al. [2017]; conditions: 30 µM CPZ, without BA mixture, ref Vatakuti et al. [2017]; cited from earlier work
[2] = test system: primary human hepatocytes; set-up: method as in Ogimura et al. [2017]; conditions: in the presence of a BA mixture, ref Ogimura et al. [2017], read-out: Concentration with 50% toxicity; cited from earlier work
rat PCLS = test system: rat PCLS; set-up: method as in Starokozhko et al. [2017a]; conditions: control 156.5, ref Starokozhko et al. [2017a]; cited from earlier work
MRP2 = test system: MRP2; set-up: method as in Pedersen et al. [2008]; Morgan et al. [2013]; conditions: ref Pedersen et al. [2008]; Morgan et al. [2013]; cited from earlier work
[3] = non-toxic concentration (CPZ 15 μM, CSA 1 μM, GB 25 μM), vs control with no drug and no BAs

`CN(C)CCCN1c2ccccc2Sc2ccc(Cl)cc21` [CPZ, Chlorpromazine hydrochloride] gave an IC50 (mouse PCLS; 48 h, read-out: IC 50% (best-fit), Table S3, mouse PCLS, 48 h, w/o BA, unit not printed in table (µM in Fig. 4)) of 29.1 µM, an IC50 (mouse PCLS; 48 h, read-out: IC 50% (best-fit), Table S3, mouse PCLS, 48 h, with BA, unit not printed in table (µM in Fig. 4)) of 21.6 µM and an IC50 (mouse PCLS; 48 h, read-out: IC50 (50% loss in viability, ATP content), mouse PCLS, 48 h, one value or range given for with and w/o BA) of 22 to 29 µM. For the same molecule, the CC50 (mouse PCLS; 48 h, read-out: IC50 (50% loss in viability, ATP content), mouse PCLS, 48 h, w/o BA mixture) was 29 µM, the CC50 (mouse PCLS; 48 h, read-out: IC50 (50% loss in viability, ATP content), mouse PCLS, 48 h, with BA mixture) was 22 µM and the “IC 5% (best-fit)” value (mouse PCLS; 5% decrease in ATP content, 48 h, w/o BA) was 15.4. The “IC 5% (best-fit)” value (mouse PCLS; 5% decrease in ATP content, 48 h, with BA) was 11.4, the “IC 25% (best-fit)” value (mouse PCLS; 25% decrease in ATP content, 48 h, w/o BA) was 22.9 and the “IC 25% (best-fit)” value (mouse PCLS; 25% decrease in ATP content, 48 h, with BA) was 17.0. The “Enhancement of drug toxicity by addition of the BA mixture” value (mouse PCLS; mouse PCLS, 48 h) was “enhanced the toxicity of CPZ considerably”, the Bsep gene expression (Bsep (Abcb11); in the presence and absence of BAs, vs control without drug) was “reduces” and the Col1a1 gene expression ([1]; in the absence of BAs, highest concentration of CPZ) was “significant increase”. For the same molecule, the Col1a1 gene expression ([1]; in the presence of BAs, highest concentration (30 µM CPZ)) was “significantly increased”, the Hsp47 gene expression (Hsp47 (Serpinh1)) was “significantly increased” and the “Bsep protein expression (western blot band intensity)” value (from here on “Bsep protein expression”) (Bsep; non-toxic concentration (CPZ 15 μM, CSA 1 μM), in the presence of the BA mixture) was “less pronounced”. For the same molecule, the “Bsep protein expression” value (Bsep; [3]) was “significant decrease in band intensity” and the “Decrease in ATP content” value (human PCLS) was 40%.
For `COc1ccc(Cl)cc1C(=O)NCCc1ccc(S(=O)(=O)NC(=O)NC2CCCCC2)cc1` [GB, Glibenclamide], the IC50 (mouse PCLS; 48 h, read-out: IC50 (50% loss in viability, ATP content)) was 70 µM, the IC50 (mouse PCLS; read-out: IC 50% (best-fit)) was 69.7 µM and the “IC 5% (best-fit)” value (mouse PCLS; IC the same with and w/o BA) was 37.9. The “IC 25% (best-fit)” value (mouse PCLS; IC the same with and w/o BA) was 55.5, the “Enhancement of drug toxicity by addition of the BA mixture” value (mouse PCLS; mouse PCLS, 48 h) was “not observed” and the Bsep gene expression (Bsep (Abcb11); 25 µM GB, when BAs are present) was “increases”. The Bsep gene expression (Bsep (Abcb11); 65 μM GB, when BAs are present) was “decreases Bsep expression significantly”, the Col1a1 gene expression ([1]; both with and without BAs present) was “reduced Col1a1 expression in a concentration-dependent manner” and the “Bsep protein expression” value (Bsep; [3]) was “did not induce any significant changes”. For the same molecule, the IC50 [2] was 103 µM, the “Intracellular GCA concentration after drug incubation” value (rat PCLS) was 364.3 pmol/mg protein and the “Effect on MRP2 activity on a protein level” value (MRP2) was “stimulate MRP2 activity”.
